Experimental data as given in patent US20090227556A1, “RECEPTOR TYROSINE KINASE INHIBITORS COMPRISING PYRIDINE AND PYRIMIDINE DERIVATIVES” (Eisai R&D Management Co., Ltd., priority 2008, published 2009).
pIC50: −log10 of the molar value. Blank lines part the entries; values can stand above or below the compound they belong to.

Key:
[1] = test system: human thyroid cancer cell line (TT); settings: subcutaneous TT model; cited from earlier work
KIT = target: T1, KIT (Homo sapiens, UniProt P10721); assay: Inhibitory action on KIT (ELISA); type: biochemical; settings: recombinant human kinase
T1 construct: purchased Carna Biosciences Inc. 08-156
T1 sequence (P10721 26-976): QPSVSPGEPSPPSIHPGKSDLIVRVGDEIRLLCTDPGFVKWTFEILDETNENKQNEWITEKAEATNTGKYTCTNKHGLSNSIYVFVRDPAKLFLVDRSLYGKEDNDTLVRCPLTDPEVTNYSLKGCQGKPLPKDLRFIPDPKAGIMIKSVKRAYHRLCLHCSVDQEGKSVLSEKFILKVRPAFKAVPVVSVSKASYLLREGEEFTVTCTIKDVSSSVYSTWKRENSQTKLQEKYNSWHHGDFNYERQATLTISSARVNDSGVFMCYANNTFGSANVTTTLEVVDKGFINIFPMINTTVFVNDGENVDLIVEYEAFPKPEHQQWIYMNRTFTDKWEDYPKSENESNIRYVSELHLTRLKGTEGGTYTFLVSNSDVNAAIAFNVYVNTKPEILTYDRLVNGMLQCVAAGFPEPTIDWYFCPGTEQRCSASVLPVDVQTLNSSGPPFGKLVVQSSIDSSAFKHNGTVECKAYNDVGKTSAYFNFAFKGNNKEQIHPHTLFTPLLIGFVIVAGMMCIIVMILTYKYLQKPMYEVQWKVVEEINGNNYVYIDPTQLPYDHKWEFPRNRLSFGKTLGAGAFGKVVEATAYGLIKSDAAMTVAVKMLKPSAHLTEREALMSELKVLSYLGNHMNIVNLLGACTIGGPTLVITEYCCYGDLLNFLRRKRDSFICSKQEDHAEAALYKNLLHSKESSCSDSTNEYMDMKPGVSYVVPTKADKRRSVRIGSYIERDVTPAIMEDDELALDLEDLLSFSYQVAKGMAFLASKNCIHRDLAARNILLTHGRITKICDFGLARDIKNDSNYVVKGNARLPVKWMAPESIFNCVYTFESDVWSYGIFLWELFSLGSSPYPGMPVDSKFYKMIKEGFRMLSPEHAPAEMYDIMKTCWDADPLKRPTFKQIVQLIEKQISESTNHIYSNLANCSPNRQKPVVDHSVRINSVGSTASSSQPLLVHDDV
Experimental: A test compound was dissolved in dimethyl sulfoxide to make a 10 mM solution, which was stored in a dark place at 4° C. until use.
Protein tyrosine kinases (recombinant human kinases) used in the study were the following products from Carna Biosciences Inc. (Kobe, Japan).
VEGFR-1 (FLT 1) (product number: 08-189) VEGFR-3 (FLT 4) (product number: 08-190) RON (product number: 08-152) RET (product number: 08-159) KIT (product number: 08-156)
Kinase activity was measured in a mobility shift assay (MSA) method (J. Biomolecular Screening, 11, 359-368, 2006) using QuickScout Screening Assist™ (Carna Biosciences Inc., commercial kit), and enzyme-linked immunoassay (ELISA).
10 μl of the test substance solution obtained by dissolving or suspending in the assay buffer (15 mM Tris, 0.01% Tween 20, 2 mM DTT, pH 7.5) (4× final concentration), or 10 μl of a solvent (4% dimethyl sulfoxide-assay buffer) was dispensed into a DELFIA Streptavidin-coated clear plate (PerkinElmer Inc., product number 4009-0010). Then, 10 μl of an ATP/substrate/metal solution of QuickScout Screening Assist™ ELISA was added. Additionally, 20 μl of the kinase solution diluted with the assay buffer was added to initiate a reaction. For a blank, only 20 μl of the assay buffer was added. The assay method was in accordance with the protocol of QuickScout Screening Assist™ ELISA. After the reaction, the absorbance at 450 nm in each well was measured using SpectraMax (Molecular Devices, California, U.S.A).

[2] = test system: Human umbilical vein endothelial cells (HUVECs); assay: Growth inhibitory activity on human umbilical vein endothelial cells stimulated by VEGF; type: cell-based; settings: HUVEC, 72 h, 3 days, Cell Counting Kit-8
Experimental: Human umbilical vein endothelial cells (HUVECs) were isolated according to the reported method (Shin-seikagaku jikken kouza “saibou baiyou gijutu (Cell culturing techniques)” p. 197-202) and incubated to confluence using an EGM-2 culture medium (obtained from Sanko Junyaku Co., Ltd.) in a 5% CO2 incubator (37° C.). The HUVECs were collected by a trypsin-EDTA treatment and washed with a culture medium (2% fetal bovine serum-supplemented Human endothelial SFM basal medium, obtained from Invitrogen Corp.), followed by suspending them in the medium to count the cell number. By diluting it with the medium, a 2×10^4 cells/ml cell suspension was prepared. The cell suspension was dispensed into a 96-well plate (obtained from FALCON) by 100 μl each, and incubated at 37° C. in a 5% CO2 incubator overnight. After the incubation, 50 μl of the test substance diluted with the medium was added to each well, and 50 μL of 80 ng/ml human recombinant VEGF (obtained from R&D systems, Inc.) diluted with the medium was added and further incubated for 3 days in the 5% CO2 incubator (37° C.). After the incubation, 20 μl of Cell Counting Kit-8 (obtained from DOJINDO Laboratories) was added to each well, which were incubated for about 2 hours in the 5% CO2 incubator (37° C.). After the incubation, the absorbance of the each well was measured using a plate reader MTP-500 (Corona Electric Co., Ltd) with a measurement wavelength of 450 nm and a control wavelength of 660 nm. A ratio of absorbance (%) of each well with the test substance against the wells without the test substance was determined, and based on this ratio, the concentration of the test substance required to inhibit 50% of cell proliferation (IC50) was determined and the results are shown in Table 2.

[3] = target: T2, VEGFR-2 tyrosine kinase (His6-VEGFR-2, cytoplasmic domain) (Homo sapiens, UniProt P35968); assay: Inhibitory activity on VEGFR-2 tyrosine kinase (HTRF); type: biochemical; settings: biotin-poly(GT) substrate
T2 construct: made in house; host or cells: Sf9 insect cells (baculovirus, pFastBac-HT)
T2 sequence (P35968 786-1356 limits assumed): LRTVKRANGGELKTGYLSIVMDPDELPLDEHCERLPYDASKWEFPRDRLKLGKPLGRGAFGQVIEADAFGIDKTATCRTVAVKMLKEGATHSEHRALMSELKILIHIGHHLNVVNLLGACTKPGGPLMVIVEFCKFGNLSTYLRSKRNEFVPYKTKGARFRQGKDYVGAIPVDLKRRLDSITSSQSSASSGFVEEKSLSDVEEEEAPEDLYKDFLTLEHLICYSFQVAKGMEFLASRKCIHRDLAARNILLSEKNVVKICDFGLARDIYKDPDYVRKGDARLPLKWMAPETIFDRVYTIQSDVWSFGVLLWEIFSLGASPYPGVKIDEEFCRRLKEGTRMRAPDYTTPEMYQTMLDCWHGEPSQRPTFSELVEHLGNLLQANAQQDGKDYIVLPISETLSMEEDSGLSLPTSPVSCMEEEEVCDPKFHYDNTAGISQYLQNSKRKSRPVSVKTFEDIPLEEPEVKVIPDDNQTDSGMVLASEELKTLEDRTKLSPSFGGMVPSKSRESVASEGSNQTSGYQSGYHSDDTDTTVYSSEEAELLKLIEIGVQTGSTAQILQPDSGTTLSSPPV
Excerpt: Cytoplasmic domain of VEGFR-2 (Genbank Accession No. L04947) is a 1.7 kb DNA fragment starting from lysine 791 and contains a stop codon, as described by Tarman et al. (Oncogene, 6(9), 1677-1683, 1991). This DNA fragment was isolated from a human placental cDNA library (obtained from Clontech Laboratories, Inc.) with two primers (obtained from TaKaRa Ex Taq™ Kit, TaKaRa) using a PCR method. This DNA fragment was cloned into a baculovirus transplace vector (pFastBac™-HT (obtained from GIBCO BRL)), to obtain a recombinant construct. An insect cell (Spodoptera frugiperda 9 (Sf9)) was transfected with it, and a VEGFR-2 recombinant baculovirus solution was prepared (preparation of the recombinant baculovirus can be found in a standard textbook (Bac-to-Bac Baculovirus Expression System (GIBCO BRL)).
To Sf9 cells (3×10^8 cells) suspended in a SF-90011 culture medium containing 2% FBS (obtained from Invitrogen Corp.), the above mentioned recombinant VEGFR-2 baculovirus solution (4 ml) was added and incubated with shaking at 27° C. for 48 hours. The recombinant VEGFR-2 baculovirus-infected cell culture was centrifuged at 4° C. at 1000 rpm for 5 minutes, and the supernatant was removed. The precipitated infected cells were suspended in 80 ml of ice-cold PBS, the suspension was centrifuged at 4° C. at 1000 rpm for 5 minutes, and the supernatant was removed. The precipitated infected cells were suspended in 40 ml of ice-cold Lysis Buffer (50 mM Tris-HCl (pH 8.5), 5 mM 2-mercaptoethanol, 100 mM KCl, 1 mM PMSF, and 1% (v/v) NP-40). This suspension was centrifuged at 4° C. at 12,000 rpm for 30 min to obtain a supernatant.
This supernatant was added to a Ni-NTA agarose column (3 ml, obtained from Qiagen) which had been equilibrated with 30 ml of Buffer A (20 mM Tris-HCl (pH 8.5), 5 mM 2-mercaptoethanol, 500 mM KCl, 20 mM imidazole, and 10% (v/v) glycerol). This column was washed sequentially with 30 ml of Buffer A, 6 ml of Buffer B (20 mM Tris-HCl (pH 8.5), 5 mM 2-mercaptoethanol, 1M KCl, and 10% (v/v) glycerol), and 6 ml of Buffer A. Then, to this column, 6 ml of Buffer C (20 mM Tris-HCl (pH 8.5), 5 mM 2-mercaptoethanol, 100 mM KCl, 100 mM imidazole, and 10% (v/v) glycerol) was added to obtain an eluate. This eluate was poured into a dialysis membrane (obtained from Spectrum Laboratories) and dialyzed with 1 liter of dialysis buffer (20 mM Tris-HCl (pH 7.5), 10% (v/v) glycerol, 1 mM DTT, 0.1 mM Na3VO4, 0.1 mM EGTA) at 4° C. overnight and stored at −80° C. until use. After the dialysis, a part of the eluate was subjected to a SDS electrophoresis, and the recombinant protein (His 6-VEGFR-2, a cytoplasmic domain of VEGFR-2 fused with 6 histidine residues on its N-terminus) detected at about 100 kDa Mw in Coomassie Brilliant Blue staining was subjected to protein quantification using BSA (obtained from Sigma Co. Ltd.) as a standard.
In each well of a 96-well round bottom plate (obtained from NUNC, product number 163320), 10 μl of a solution for kinase reaction (200 mM Hepes (pH 7.4), 80 mM MgCl2, 16 mM MnCl2, 2 mM Na3VO4), 250 ng of biotin-conjugated poly (Glu 4: Tyr 1) (biotin-poly (GT) obtained from Nihon Schering K.K.) (6 μl of 1/15 diluted solution with distilled water), 15 ng of His6-VEGFR-2 (10 μl of a 1/240 diluted solution with a 0.4% BSA solution), and a test substance solution in dimethyl sulfoxide (4 μl of 1/100 dilution with 0.1% BSA) were added to make a total volume of 30 μl. To them, 10 μl of 4 μM ATP (obtained from Sigma Co. Ltd.) diluted with distilled water was added, and the resultant was incubated for 10 minutes at 30° C., followed by addition of 10 μl of 500 mM EDTA (pH 8.0) (obtained from Wako Pure Chemical Industries, Ltd.) to obtain a kinase reaction solution.
To detect tyrosine-phosphorylated biotin-poly (GT), the Homogenous Time-Resolved Fluorescence (HTRF) method was used (Analytical Biochemistry, 269, 94-104, 1999). […]

[4] = test system: NIH3T3 cells transformed by mutated RET; settings: cited from earlier work
[5] = test system: NIH3T3 cells transformed by mutated RET; settings: after injection of the cells to a nude mouse; cited from earlier work

Compound: CNC(=O)c1cc(Oc2ccc(NC(=O)Nc3ccc(Cl)c(C(F)(F)F)c3)cc2)ccn1 [BAY 43-9006]
tumor size [1]: reduced a tumor size

pIC50 (KIT): 7.00
pIC50 [3]: 6.62
Compound: CN1CCN(C2CCN(C(=O)Nc3cc(Oc4ccc(NC(=O)C5(C(=O)Nc6ccc(F)cc6)CC5)c(F)c4)ccn3)CC2)CC1 [N-(2-Fluoro-4-{[2-({[4-(4-methylpiperazin-1-yl)piperidin-1-yl]carbonyl}amino)pyridin-4-yl]oxy}phenyl)-N′-(4-fluorophenyl)cyclopropane-1,1-dicarboxamide]
pIC50 [2]: 7.09

Compound: COc1cc2c(Nc3ccc(Br)cc3F)ncnc2cc1OCC1CCN(C)CC1 [ZD6474]
anchorage-independent growth [4]: suppressed anchorage-independent growth
tumorigenesis [5]: inhibited tumorigenesis
